Where a SMILES comes first, the peptide text is derived from it. Bridges are numbered along the chain shown (N, C = ends).
How the values were obtained:
[1] = tested on: rhesus monkey kidney membranes (NPR-A and NPR-C); experiment: Competition binding in rhesus monkey kidney membranes; details: FIG. 11, rhesus monkey kidney membranes
Method: For preparation of membranes from Rhesus monkey tissues, frozen tissue was placed between parafilm and broken up into pieces by hitting with a hammer. Tissue was transferred to a 125 mL polypropylene tube containing 100 mL of ice-cold buffer #1 (50 mM HEPES, pH 7.4, 1 mM EDTA, 250 mM sucrose, 0.7 mg/mL pepstatin A, 0.5 mg/mL leupeptin, 1 mM PMSF, and 1 mM phosphoramidon). Tissue was homogenized with a Brinkman polytron on a setting of 5 two times for 10 sec. The sample was placed on ice between homogenizations. 11 mL of 30 mM MgCl2/100 mM NaCl containing 1 mM phosphoramidon was added to the homogenate. The homogenate was spun at 400×g for 10 min at 4° C. in a HB-4 rotor. The supernatant was transferred to another tube and spun as above. The supernatant was passed though four layers of sterile gauze then centrifuged at 30,000×g for 20 min at 4° C. in a 60 Ti rotor. […]
Membrane competition binding assays. […] The plates were washed six times with PBS, then air dried prior to adding scintillant and counted in a Packard Topcount scintillation counter for 1 min/well. Binding was measured in duplicate for each concentration of competitor.
(§1) Data analysis. The competition binding curves and cGMP production dose responses were analyzed by the four-parameter logistic equation with the KaleidaGraph™ program (Synergy Software, PA) to obtain estimates of the IC50 or EC50 values. […]

[2] = target: T1, membrane preparation from rhesus monkey lung (Macaca mulatta, UniProt F7HE88); experiment: cGMP stimulation of rhesus lung membranes; assay type: biochemical; details: FIG. 13, rhesus monkey lung membranes
T1 construct: from tissue; host or cells: rhesus monkey lung membranes
T1 sequence (F7HE88 33-1061): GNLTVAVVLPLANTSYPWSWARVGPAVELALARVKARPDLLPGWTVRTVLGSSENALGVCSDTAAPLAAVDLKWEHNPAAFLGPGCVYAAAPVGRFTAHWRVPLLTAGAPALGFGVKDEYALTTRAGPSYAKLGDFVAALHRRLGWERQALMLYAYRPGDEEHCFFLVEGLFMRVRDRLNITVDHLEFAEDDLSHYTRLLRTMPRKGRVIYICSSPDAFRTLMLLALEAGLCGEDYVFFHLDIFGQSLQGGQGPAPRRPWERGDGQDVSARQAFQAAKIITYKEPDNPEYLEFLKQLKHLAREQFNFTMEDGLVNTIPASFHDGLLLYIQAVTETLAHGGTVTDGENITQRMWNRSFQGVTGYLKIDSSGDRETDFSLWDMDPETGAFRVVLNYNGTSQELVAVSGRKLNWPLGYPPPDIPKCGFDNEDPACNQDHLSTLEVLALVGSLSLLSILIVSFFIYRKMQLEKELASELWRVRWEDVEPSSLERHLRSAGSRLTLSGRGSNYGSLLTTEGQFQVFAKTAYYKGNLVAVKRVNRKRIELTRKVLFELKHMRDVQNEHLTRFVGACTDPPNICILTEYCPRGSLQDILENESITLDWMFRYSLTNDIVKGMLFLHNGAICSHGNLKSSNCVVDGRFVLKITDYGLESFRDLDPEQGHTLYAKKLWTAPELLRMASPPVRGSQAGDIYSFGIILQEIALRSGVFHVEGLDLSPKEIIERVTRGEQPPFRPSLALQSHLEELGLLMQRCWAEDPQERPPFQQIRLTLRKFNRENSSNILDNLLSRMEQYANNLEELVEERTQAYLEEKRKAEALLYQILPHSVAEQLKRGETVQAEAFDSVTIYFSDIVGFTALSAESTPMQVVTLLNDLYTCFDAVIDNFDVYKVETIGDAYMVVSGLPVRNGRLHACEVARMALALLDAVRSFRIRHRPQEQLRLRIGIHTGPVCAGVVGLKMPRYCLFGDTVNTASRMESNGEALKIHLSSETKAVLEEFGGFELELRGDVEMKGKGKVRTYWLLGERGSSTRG
Method: For preparation of membranes from Rhesus monkey tissues, frozen tissue was placed between parafilm and broken up into pieces by hitting with a hammer. Tissue was transferred to a 125 mL polypropylene tube containing 100 mL of ice-cold buffer #1 (50 mM HEPES, pH 7.4, 1 mM EDTA, 250 mM sucrose, 0.7 mg/mL pepstatin A, 0.5 mg/mL leupeptin, 1 mM PMSF, and 1 mM phosphoramidon). Tissue was homogenized with a Brinkman polytron on a setting of 5 two times for 10 sec. The sample was placed on ice between homogenizations. 11 mL of 30 mM MgCl2/100 mM NaCl containing 1 mM phosphoramidon was added to the homogenate. The homogenate was spun at 400×g for 10 min at 4° C. in a HB-4 rotor. The supernatant was transferred to another tube and spun as above. The supernatant was passed though four layers of sterile gauze then centrifuged at 30,000×g for 20 min at 4° C. in a 60 Ti rotor. The pellet was resuspended in 3-5 mL of buffer #2 (50 mM HEPES, pH 7.4, 0.1 mM EDTA, 5 mM MgCl2, 100 mM NaCl, 0.7 mg/mL pepstatin A, 0.5 mg/mL leupeptin, 1 mM PMSF, and 1 mM phosphoramidon), using a 7 mL Wheaton Dounce with a B pestle. Aliquots were stored at −80° C. […]
as §1

CC[C@H](C)[C@@H]1NC(=O)[C@H](CCCNC(=N)N)NC(=O)[C@H](CC(=O)O)NC(=O)[C@H]([C@@H](C)CC)NC(=O)[C@H](CO)NC(=O)CNC(=O)[C@H]([C@@H](C)O)NC(=O)[C@H](Cc2ccccc2)NC(=O)[C@@H](NC(=O)[C@H](CO)NC(=O)[C@H](CO)NC(=O)[C@H](CCCNC(=N)N)NC(=O)[C@H](CCCNC(=N)N)NC(=O)[C@H](CC(C)C)NC(=O)[C@@H](N)CO)CSSC[C@@H](C(=O)N[C@@H](CC(N)=O)C(=O)N[C@@H](CO)C(=O)N[C@@H](Cc2ccccc2)C(=O)N[C@@H](CCCNC(=N)N)C(=O)N[C@@H](Cc2ccc(O)cc2)C(=O)O)NC(=O)CNC(=O)[C@H](CC(C)C)NC(=O)CNC(=O)[C@H](CO)NC(=O)[C@H](CCC(N)=O)NC(=O)[C@H](C)NC(=O)[C@H](CCCNC(=N)N)NC1=O [ANF 27]
Displacement of 125I-rat ANP binding [1]: a smaller portion of the total binding is displaced

CC[C@H](C)[C@@H]1NC(=O)[C@H](CCCNC(=N)N)NC(=O)[C@H](CC(=O)O)NC(=O)[C@H]([C@@H](C)CC)NC(=O)[C@H](CO)NC(=O)CNC(=O)[C@H]([C@@H](C)O)NC(=O)[C@H](Cc2ccccc2)NC[C@@H](NC(=O)[C@H](CO)NC(=O)[C@H](CO)NC(=O)[C@H](CCCNC(=N)N)NC(=O)[C@H](CCCNC(=N)N)NC(=O)[C@H](CC(C)C)NC(=O)[C@@H](N)CO)CSSC[C@@H](C(=O)N[C@@H](CC(N)=O)C(=O)N[C@@H](CO)C(=O)N[C@@H](Cc2ccccc2)C(=O)N[C@@H](CCCNC(=N)N)C(=O)N[C@@H](Cc2ccc(O)cc2)C(=O)O)NC(=O)CNC(=O)[C@H](CC(C)C)NC(=O)CNC(=O)[C@H](CO)NC(=O)[C@H](CCC(N)=O)NC(=O)[C@H](C)NC(=O)[C@H](CCCNC(=N)N)NC1=O [ANF 84]
Potency in stimulation of cGMP production compared with rat ANP [2]: more potent than rat ANP

CC[C@H](C)[C@@H]1NC(=O)[C@H](CCCNC(=N)N)NC(=O)[C@H](CC(=O)O)NC(=O)[C@H]([C@@H](C)CC)NC(=O)[C@H](CO)NC(=O)CNC(=O)[C@H]([C@@H](C)O)NC(=O)[C@H](Cc2ccccc2)NC(=O)[C@@H](NC(=O)[C@H](CO)NC(=O)[C@H](CO)NC(=O)[C@H](CCCNC(=N)N)NC(=O)[C@H](CCCNC(=N)N)NC(=O)[C@H](CC(C)C)NC(=O)[C@H](CO)NC(=O)[C@H](CCCNC(=N)N)NC(=O)[C@@H]2CCCN2C(=O)[C@H](C)NC(=O)[C@@H](N)[C@@H](C)O)CSSC[C@@H](C(=O)N[C@@H](CC(N)=O)C(=O)N[C@@H](CO)C(=O)N[C@@H](Cc2ccccc2)C(=O)N[C@@H](CCCNC(=N)N)C(=O)N[C@@H](Cc2ccc(O)cc2)C(=O)O)NC(=O)CNC(=O)[C@H](CC(C)C)NC(=O)CNC(=O)[C@H](CO)NC(=O)[C@H](CCC(N)=O)NC(=O)[C@H](C)NC(=O)[C@H](CCCNC(=N)N)NC1=O [ANF 76] (H-TAPRSLRRSSCFTGSIDRIRAQSGLGCNSFRY-OH; disulfide 11-27; C-terminus assumed)
Potency in stimulation of cGMP production compared with rat ANP [2]: more potent than rat ANP

— patent publication US6525022B1, “Receptor specific atrial natriuretic peptides” (Genentech, Inc., priority 1993, dated 2003)
